ChEMBL document CHEMBL1671617, “Correlation of antimicrobial resistance with beta-lactamases, the OmpA-like porin, and efflux pumps in clinical isolates of Acinetobacter baumannii endemic to New York City” (2008)

Each compound was assayed on Acinetobacter baumannii (assay: Antimicrobial activity against ISAba1 linked with the blaOXA-51-type beta-lactamase harboring Acinetobacter baumannii alpha clonal group isolate 1 expressing ampC, ompA, adeB, adeM by Etest method).
Type: functional

SMILES	MIC [µg/mL]
C[C@H]1COc2c(N3CCN(C)CC3)c(F)cc3c(=O)c(C(=O)O)cn1c23.C[C@H]1COc2c(N3CCN(C)CC3)c(F)cc3c(=O)c(C(=O)O)cn1c23.O [LEVOFLOXACIN]	16

These compounds were tested on Acinetobacter baumannii (assay: Antimicrobial activity against Acinetobacter baumannii alpha clonal group isolate 2 expressing ampC, ompA, adeB, adeM, aacC1, aadA1 by Etest method).
Type: functional

SMILES	MIC [µg/mL]
C[C@H]1COc2c(N3CCN(C)CC3)c(F)cc3c(=O)c(C(=O)O)cn1c23.C[C@H]1COc2c(N3CCN(C)CC3)c(F)cc3c(=O)c(C(=O)O)cn1c23.O [LEVOFLOXACIN]	> 12

These compounds were tested on Acinetobacter baumannii (assay: Antimicrobial activity against Acinetobacter baumannii alpha clonal group isolate 3 expressing ampC, ompA, adeB, adeM, aacC1, aadA1 by Etest method).
Type: functional

SMILES	MIC [µg/mL]
C[C@H]1COc2c(N3CCN(C)CC3)c(F)cc3c(=O)c(C(=O)O)cn1c23.C[C@H]1COc2c(N3CCN(C)CC3)c(F)cc3c(=O)c(C(=O)O)cn1c23.O [LEVOFLOXACIN]	> 12

What follows are compounds tested on Acinetobacter baumannii (assay: Antimicrobial activity against Acinetobacter baumannii alpha clonal group isolate 4 expressing ampC, ompA, adeB, adeM, aacC1, aadA1 by Etest method).
Type: functional

SMILES	MIC [µg/mL]
C[C@H]1COc2c(N3CCN(C)CC3)c(F)cc3c(=O)c(C(=O)O)cn1c23.C[C@H]1COc2c(N3CCN(C)CC3)c(F)cc3c(=O)c(C(=O)O)cn1c23.O [LEVOFLOXACIN]	> 12

The compounds below were run on Acinetobacter baumannii (assay: Antimicrobial activity against Acinetobacter baumannii alpha clonal group isolate 5 expressing ampC, ompA, adeB, adeM, aacC1, aadA1 by Etest method).
Type: functional

SMILES	MIC [µg/mL]
C[C@H]1COc2c(N3CCN(C)CC3)c(F)cc3c(=O)c(C(=O)O)cn1c23.C[C@H]1COc2c(N3CCN(C)CC3)c(F)cc3c(=O)c(C(=O)O)cn1c23.O [LEVOFLOXACIN]	> 12

These compounds were tested on Acinetobacter baumannii (assay: Antimicrobial activity against ISAba1 linked with the blaOXA-51-type beta-lactamase harboring Acinetobacter baumannii alpha clonal group isolate 6 expressing ampC, ompA, adeB, adeM, aacC1, aadA1 by Etest method).
Type: functional

SMILES	MIC [µg/mL]
C[C@H]1COc2c(N3CCN(C)CC3)c(F)cc3c(=O)c(C(=O)O)cn1c23.C[C@H]1COc2c(N3CCN(C)CC3)c(F)cc3c(=O)c(C(=O)O)cn1c23.O [LEVOFLOXACIN]	6

These compounds were tested on Acinetobacter baumannii (assay: Antimicrobial activity against ISAba1 linked with the blaOXA-51-type beta-lactamase harboring Acinetobacter baumannii alpha clonal group isolate 7 expressing ampC, ompA, adeB, adeM, blaSHV-5 by Etest method).
Type: functional

SMILES	MIC [µg/mL]
C[C@H]1COc2c(N3CCN(C)CC3)c(F)cc3c(=O)c(C(=O)O)cn1c23.C[C@H]1COc2c(N3CCN(C)CC3)c(F)cc3c(=O)c(C(=O)O)cn1c23.O [LEVOFLOXACIN]	6

The compounds below were run on Acinetobacter baumannii (assay: Antimicrobial activity against ISAba1 linked with the blaOXA-51-type beta-lactamase harboring Acinetobacter baumannii alpha clonal group isolate 8 expressing ampC, ompA, adeB, adeM, aacC1, aadA1 by Etest method).
Type: functional

SMILES	MIC [µg/mL]
C[C@H]1COc2c(N3CCN(C)CC3)c(F)cc3c(=O)c(C(=O)O)cn1c23.C[C@H]1COc2c(N3CCN(C)CC3)c(F)cc3c(=O)c(C(=O)O)cn1c23.O [LEVOFLOXACIN]	32

These compounds were tested on Acinetobacter baumannii (assay: Antimicrobial activity against ISAba1 linked with the blaOXA-51-type beta-lactamase harboring Acinetobacter baumannii beta clonal group isolate 9 expressing ampC, ompA, adeB, adeM by Etest method).
Type: functional

SMILES	MIC [µg/mL]
C[C@H]1COc2c(N3CCN(C)CC3)c(F)cc3c(=O)c(C(=O)O)cn1c23.C[C@H]1COc2c(N3CCN(C)CC3)c(F)cc3c(=O)c(C(=O)O)cn1c23.O [LEVOFLOXACIN]	> 32

These compounds were tested on Acinetobacter baumannii (assay: Antimicrobial activity against ISAba1 linked with the blaOXA-51-type beta-lactamase harboring Acinetobacter baumannii beta clonal group isolate 10 expressing ompA, adeB, adeM, aacA4, blaSHV-5 by Etest method).
Type: functional

SMILES	MIC [µg/mL]
C[C@H]1COc2c(N3CCN(C)CC3)c(F)cc3c(=O)c(C(=O)O)cn1c23.C[C@H]1COc2c(N3CCN(C)CC3)c(F)cc3c(=O)c(C(=O)O)cn1c23.O [LEVOFLOXACIN]	> 32

Each compound was assayed on Acinetobacter baumannii (assay: Antimicrobial activity against ISAba1 linked with the blaOXA-51-type beta-lactamase harboring Acinetobacter baumannii beta clonal group isolate 11 expressing ompA, adeB, adeM, blaSHV-5 by Etest method).
Type: functional

SMILES	MIC [µg/mL]
C[C@H]1COc2c(N3CCN(C)CC3)c(F)cc3c(=O)c(C(=O)O)cn1c23.C[C@H]1COc2c(N3CCN(C)CC3)c(F)cc3c(=O)c(C(=O)O)cn1c23.O [LEVOFLOXACIN]	> 32

The compounds below were run on Acinetobacter baumannii (assay: Antimicrobial activity against ISAba1 linked with the blaOXA-51-type beta-lactamase harboring Acinetobacter baumannii beta clonal group isolate 12 expressing ompA, adeB, adeM, aacA4, aacC2, blaSHV-5 by Etest method).
Type: functional

SMILES	MIC [µg/mL]
C[C@H]1COc2c(N3CCN(C)CC3)c(F)cc3c(=O)c(C(=O)O)cn1c23.C[C@H]1COc2c(N3CCN(C)CC3)c(F)cc3c(=O)c(C(=O)O)cn1c23.O [LEVOFLOXACIN]	> 32

The compounds below were run on Acinetobacter baumannii (assay: Antimicrobial activity against ISAba1 linked with the blaOXA-51-type beta-lactamase harboring Acinetobacter baumannii beta clonal group isolate 13 expressing ompA, adeB, adeM, aacA4, blaSHV-5 by Etest method).
Type: functional

SMILES	MIC [µg/mL]
C[C@H]1COc2c(N3CCN(C)CC3)c(F)cc3c(=O)c(C(=O)O)cn1c23.C[C@H]1COc2c(N3CCN(C)CC3)c(F)cc3c(=O)c(C(=O)O)cn1c23.O [LEVOFLOXACIN]	> 32

These compounds were tested on Acinetobacter baumannii (assay: Antimicrobial activity against ISAba1 linked with the blaOXA-51-type beta-lactamase harboring Acinetobacter baumannii beta clonal group isolate 14 expressing ompA, adeB, adeM, aacA4, blaSHV-5 by Etest method).
Type: functional

SMILES	MIC [µg/mL]
C[C@H]1COc2c(N3CCN(C)CC3)c(F)cc3c(=O)c(C(=O)O)cn1c23.C[C@H]1COc2c(N3CCN(C)CC3)c(F)cc3c(=O)c(C(=O)O)cn1c23.O [LEVOFLOXACIN]	> 32

What follows are compounds tested on Acinetobacter baumannii (assay: Antimicrobial activity against ISAba1 linked with the blaOXA-51-type beta-lactamase harboring Acinetobacter baumannii beta clonal group isolate 15 expressing ompA, adeB, adeM, aacA4, blaSHV-5 by Etest method).
Type: functional

SMILES	MIC [µg/mL]
C[C@H]1COc2c(N3CCN(C)CC3)c(F)cc3c(=O)c(C(=O)O)cn1c23.C[C@H]1COc2c(N3CCN(C)CC3)c(F)cc3c(=O)c(C(=O)O)cn1c23.O [LEVOFLOXACIN]	> 32

These compounds were tested on Acinetobacter baumannii (assay: Antimicrobial activity against ISAba1 linked with the blaOXA-51-type beta-lactamase harboring Acinetobacter baumannii beta clonal group isolate 16 expressing ompA, adeB, adeM, aacA4, blaSHV-5 by Etest method).
Type: functional

SMILES	MIC [µg/mL]
C[C@H]1COc2c(N3CCN(C)CC3)c(F)cc3c(=O)c(C(=O)O)cn1c23.C[C@H]1COc2c(N3CCN(C)CC3)c(F)cc3c(=O)c(C(=O)O)cn1c23.O [LEVOFLOXACIN]	> 32

These compounds were tested on Acinetobacter baumannii (assay: Antimicrobial activity against ISAba1 linked with the blaOXA-51-type beta-lactamase harboring Acinetobacter baumannii beta clonal group isolate 17 expressing ompA, adeB, adeM, aacA4, blaSHV-5 by Etest method).
Type: functional

SMILES	MIC [µg/mL]
C[C@H]1COc2c(N3CCN(C)CC3)c(F)cc3c(=O)c(C(=O)O)cn1c23.C[C@H]1COc2c(N3CCN(C)CC3)c(F)cc3c(=O)c(C(=O)O)cn1c23.O [LEVOFLOXACIN]	> 32

The compounds below were run on Acinetobacter baumannii (assay: Antimicrobial activity against ISAba1 linked with the blaOXA-51-type beta-lactamase harboring Acinetobacter baumannii beta clonal group isolate 18 expressing ompA, adeB, adeM, aacA4, blaSHV-5 by Etest method).
Type: functional

SMILES	MIC [µg/mL]
C[C@H]1COc2c(N3CCN(C)CC3)c(F)cc3c(=O)c(C(=O)O)cn1c23.C[C@H]1COc2c(N3CCN(C)CC3)c(F)cc3c(=O)c(C(=O)O)cn1c23.O [LEVOFLOXACIN]	> 32

Each compound was assayed on Acinetobacter baumannii (assay: Antimicrobial activity against ISAba1 linked with the blaOXA-51-type beta-lactamase harboring Acinetobacter baumannii zeta clonal group isolate 19 expressing ampC, ompA, adeB, adeM, aacC2 by Etest method).
Type: functional

SMILES	MIC [µg/mL]
C[C@H]1COc2c(N3CCN(C)CC3)c(F)cc3c(=O)c(C(=O)O)cn1c23.C[C@H]1COc2c(N3CCN(C)CC3)c(F)cc3c(=O)c(C(=O)O)cn1c23.O [LEVOFLOXACIN]	12
